How the values were obtained:
H3K9me2 in HCT116 cells = assay: HCT116 H3K9me2 in-cell western assay; format: cell-based; settings: Homo sapiens, HCT-116, 72 h, HCT116 cells, 72 hours incubation; read-out: H3K9me2 ICW IC50
Method in brief: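 HCT116 cells (2,000/well) were treated for 72 h at 37° C, 5% CO2, with ten two-fold dilutions from 10 μM in duplicate. After PFA fixation, cells were stained overnight at 4° C with anti-H3K9me2, then with an 800 CW secondary plus DRAQ5.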

hERG potassium channels = hERG potassium channels (Homo sapiens, UniProt Q12809); assay: In vitro hERG assay (SyncroPatch whole-cell recording); settings: hERG IC50, SyncroPatch, room temperature
human EHMT1 982-1266 = molecular target: T1, human EHMT1 982-1266 (Homo sapiens, UniProt Q9H9B1); assay: EHMT1 enzyme assay on histone peptide substrate (3H-SAM SPA); settings: EHMT1 IC50, recombinant human EHMT1 982-1266, histone peptide substrate
T1 sequence (Q9H9B1 982-1266): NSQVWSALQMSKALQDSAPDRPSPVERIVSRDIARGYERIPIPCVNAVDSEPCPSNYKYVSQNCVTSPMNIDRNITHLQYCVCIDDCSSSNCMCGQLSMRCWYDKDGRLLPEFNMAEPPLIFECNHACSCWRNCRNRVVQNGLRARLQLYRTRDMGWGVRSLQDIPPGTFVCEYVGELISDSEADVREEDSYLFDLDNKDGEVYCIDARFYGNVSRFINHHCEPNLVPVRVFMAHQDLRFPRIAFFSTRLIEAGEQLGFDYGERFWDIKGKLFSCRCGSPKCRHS

human EHMT2 913-1193 = molecular target: T2, human EHMT2 913-1193 (Homo sapiens, UniProt Q96KQ7); assay: EHMT2 enzyme assay on histone peptide substrate (3H-SAM SPA); settings: EHMT2 IC50, recombinant human EHMT2 913-1193, histone peptide substrate
T2 sequence (Q96KQ7 913-1193): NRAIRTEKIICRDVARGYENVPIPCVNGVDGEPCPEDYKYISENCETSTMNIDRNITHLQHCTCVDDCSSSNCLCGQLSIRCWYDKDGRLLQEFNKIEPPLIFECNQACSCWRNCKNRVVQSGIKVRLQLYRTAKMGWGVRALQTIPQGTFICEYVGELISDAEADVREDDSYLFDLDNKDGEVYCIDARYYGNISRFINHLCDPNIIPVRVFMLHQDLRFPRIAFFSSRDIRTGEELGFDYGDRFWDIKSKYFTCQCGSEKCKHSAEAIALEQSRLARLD

Chain of hERG potassium channels (Q12809 whole entry): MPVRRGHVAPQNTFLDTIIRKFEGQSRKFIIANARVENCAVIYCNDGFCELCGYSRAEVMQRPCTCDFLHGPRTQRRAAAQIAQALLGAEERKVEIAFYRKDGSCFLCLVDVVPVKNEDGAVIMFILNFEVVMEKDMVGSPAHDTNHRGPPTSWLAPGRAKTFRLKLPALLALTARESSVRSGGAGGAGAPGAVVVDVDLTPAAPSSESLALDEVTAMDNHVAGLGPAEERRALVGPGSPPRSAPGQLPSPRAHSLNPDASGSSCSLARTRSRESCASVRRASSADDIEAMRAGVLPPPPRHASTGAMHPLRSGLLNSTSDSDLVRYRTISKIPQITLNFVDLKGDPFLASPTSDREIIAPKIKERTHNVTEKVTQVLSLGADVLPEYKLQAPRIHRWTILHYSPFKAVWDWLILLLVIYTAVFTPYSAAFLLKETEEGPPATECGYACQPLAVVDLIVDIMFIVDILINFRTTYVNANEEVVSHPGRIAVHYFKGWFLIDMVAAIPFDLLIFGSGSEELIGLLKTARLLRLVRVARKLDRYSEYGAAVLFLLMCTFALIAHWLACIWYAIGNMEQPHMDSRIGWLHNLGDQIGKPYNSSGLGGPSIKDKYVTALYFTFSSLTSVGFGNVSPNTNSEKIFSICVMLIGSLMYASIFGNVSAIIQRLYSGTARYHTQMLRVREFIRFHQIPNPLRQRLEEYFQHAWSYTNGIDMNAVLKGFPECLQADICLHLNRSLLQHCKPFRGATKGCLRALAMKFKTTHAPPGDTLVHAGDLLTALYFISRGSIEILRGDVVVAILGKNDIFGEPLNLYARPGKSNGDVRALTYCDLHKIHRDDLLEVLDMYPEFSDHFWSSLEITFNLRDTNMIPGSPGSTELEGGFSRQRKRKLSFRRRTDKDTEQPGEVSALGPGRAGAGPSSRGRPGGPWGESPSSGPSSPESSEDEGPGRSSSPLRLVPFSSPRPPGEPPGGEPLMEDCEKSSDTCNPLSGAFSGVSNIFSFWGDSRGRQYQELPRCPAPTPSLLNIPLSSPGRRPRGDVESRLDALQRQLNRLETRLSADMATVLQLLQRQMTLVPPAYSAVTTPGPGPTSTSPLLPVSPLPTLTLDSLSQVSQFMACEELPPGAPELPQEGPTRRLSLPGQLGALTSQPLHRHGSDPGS

Compound	IC50 (H3K9me2 in HCT116 cells) [nM]	IC50 (human EHMT1 982-1266) [nM]	IC50 (human EHMT2 913-1193) [nM]	IC50 (hERG potassium channels) [nM]
Cc1cc(NCC(F)(F)F)nc(Nc2cc3c(c(C4=CCNCCC4)c2)OCC3)n1 [Compound 322]	100 to 500	< 100	100 to 500	2000 to 5000
CNc1cc(C(C)C)nc(Nc2cc3c(c(C4=CCN(C)CCC4)c2)OCC3)n1 [Compound 323]	100 to 500	100 to 500	100 to 500	2000 to 5000
COCCNc1cc(C)nc(Nc2cc3c(c(C4=CCN(C)CCC4)c2)OCC3)n1 [Compound 324]	100 to 500	100 to 500	100 to 500	5000 to 10000
Cc1cc(NC2CCC2)nc(Nc2cc3c(c(C4=CCNCCC4)c2)OCC3)n1 [Compound 325]	100 to 500	< 100	100 to 500	2000 to 5000
CNc1cc(C(C)C)nc(Nc2cc3c(c(C4=CCNCCC4)c2)OCC3)n1 [Compound 326]	< 100	< 100	< 100	2000 to 5000
COCCNc1cc(C)nc(Nc2cc3c(c(C4=CCNCCC4)c2)OCC3)n1 [Compound 327]	< 100	< 100	< 100	> 10000
CNc1cc(C)nc(Nc2cc3c(c(C4=CCNCCC4)c2F)OCC3)c1 [Compound 328]	< 100	< 100	< 100	> 10000
CNc1cc(C)nc(Nc2cc3c(c(C4C[C@@H]5CN(C)C[C@@H]5C4)c2)OCCO3)n1 (some centres unmarked) [Compound 329]	100 to 500	100 to 500	500 to 2000	> 10000
CNc1ccnc(Nc2cc3c(c(C4=CCNCCC4)c2)OCC3)n1 [Compound 330]	< 100	< 100	< 100	> 10000

Now from value to compound, other results behind:

IC50 (H3K9me2 in HCT116 cells) [nM]	IC50 (human EHMT1 982-1266) [nM]	IC50 (human EHMT2 913-1193) [nM]	Compound	IC50 (hERG potassium channels) [nM]
< 100	< 100	< 100	CNc1cc(C)nc(Nc2cc3c(c(C4=CCNCCC4)c2C)OCC3)n1 [Compound 188, N4,6-dimethyl-N2-[6-methyl-7-(2,3,4,7-tetrahydro-1H-azepin-5-yl)-2,3-dihydrobenzofuran-5-yl]pyrimidine-2,4-diamine]	> 10000
< 100	< 100	< 100	CNc1cc(C)nc(Nc2cc3c(c(C4=CCNCCC4)c2Cl)OCC3)n1 [Compound 189, N2-[6-chloro-7-(2,3,4,7-tetrahydro-1H-azepin-5-yl)-2,3-dihydrobenzofuran-5-yl]-N4,6-dimethyl-pyrimidine-2,4-diamine]	> 10000
< 100	< 100	< 100	CNc1cc(C)nc(Nc2cc3c(c(C4=CCN(C)CCC4)c2F)OCCC3)n1 [Compound 190]	5000 to 10000
< 100	< 100	< 100	CNc1cc(C)nc(Nc2cc3c(c(C4=CCNCCC4)c2F)OCCO3)n1 [Compound 191]	2000 to 5000
< 100	< 100	< 100	CNc1cc(C)nc(Nc2cc3c(c(C4=CCNCCC4)c2F)OCCC3)n1 [Compound 193, N2-[7-fluoro-8-(2,3,4,7-tetrahydro-1H-azepin-5-yl)chroman-6-yl]-N4,6-dimethyl-pyrimidine-2,4-diamine]	5000 to 10000
< 100	< 100	< 100	CCN1CC=C(c2c(F)c(Nc3nc(C)cc(NC)n3)cc3c2OCC3)CCC1 [Compound 201]	5000 to 10000
< 100	< 100	< 100	COCCNc1cc(C)nc(Nc2cc3c(c(C4=CCNCCC4)c2F)OCC3)n1 [Compound 289, N2-[6-fluoro-7-(2,3,4,7-tetrahydro-1H-azepin-5-yl)-2,3-dihydrobenzofuran-5-yl]-N4-(2-methoxyethyl)-6-methyl-pyrimidine-2,4-diamine]	> 10000
< 100	< 100	100 to 500	COCCNc1cc(C)nc(Nc2cc3c(c(C4=CCN(C)CCC4)c2F)OCC3)n1 [Compound 290]	> 10000

— US20240368139A1, “NOVEL MODULATORS OF EHMT1 AND EHMT2 AND THERAPEUTIC USE THEREOF” (Tango Therapeutics, Inc., priority 2021, published 2024)
